Our source for the IC50 values is US10696693B2, “Fused imidazole derivatives as TGF-beta inhibitors” (Rigel Pharmaceuticals, Inc., priority 2014, dated 2020).

Read-outs that look alike come from different tables or passages of the source.

The test system of one experiment is GDF8. Kind of experiment: AlphaScreen SureFire p-SMAD3 (Ser423/425) assay, GDF8-stimulated cells. Format: cell-based. The method in brief: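 Lysate (5 μL) went into 384-well shallow plates with 5 μL of Reaction Buffer, Activation Buffer and AlphaScreen Acceptor bead mix. Plates were sealed, kept dark and shaken for 2 hours at room temperature. Donor beads in dilution buffer (2 μL) were added for another 1½ hours, and p-SMAD3 signal was read on a Synergy-4 or Enspire reader.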

A further experiment concerns TGF-β. Nature of the experiment: AlphaScreen SureFire p-SMAD3 (Ser423/425) assay, TGF-β-stimulated cells. Format: cell-based. The method in brief: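 The p-SMAD-3 (Ser423/425) SureFire assay measured phosphorylation of endogenous SMAD-3 in cell lysates. Cells were plated overnight in collagen-coated plates, exposed to three-fold serially diluted compounds for about 10 minutes, then stimulated with TGFβ. Lysates (5 μL) received acceptor bead mix for 2 hours, then donor beads for 1½ hours before AlphaScreen reading.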
(In general: Alpha assays give light when donor and acceptor beads are brought close together.)

The mark [1] stands for this setting: Mus musculus, MPC-11, p-SMAD3 (Ser423/425) AlphaScreen in cell lysate, MPC11, GDF8 stimulation, read-out: GDF8: inhibition of GDF8 signaling, GDF pSMAD (MPC11).
Setting [2] is: Mus musculus, p-SMAD3 (Ser423/425) AlphaScreen in cell lysate, MPC-11, TGF-β stimulation, read-out: TGF-β: inhibition of TGF-β signaling, TGF-β pSMAD (MPC-11).
The mark [3] stands for this setting: Mus musculus, MPC-11, read-out: GDF8: inhibition of GDF8 signaling, GDF pSMAD (MPC11), p-SMAD3 (Ser423/425) AlphaScreen in cell lysate, GDF8 stimulation.
The mark [4] stands for this setting: Mus musculus, MPC-11, read-out: TGF-β: inhibition of TGF-β signaling, TGF-β pSMAD (MPC-11), p-SMAD3 (Ser423/425) AlphaScreen in cell lysate, TGF-β stimulation.

Consider `Fc1cc(F)c(F)c(-c2nc3n(c2-c2cc4cnccc4s2)CCN3)c1` [Compound 112, 2-(6-(2,3,5-trifluorophenyl)-2,3-dihydro-1H-imidazo[1,2-a]imidazol-5-yl)thieno[3,2-c]pyridine], for which the IC50 in the experiment with GDF8 (setting [1]) and in the experiment on TGF-β (setting [2]) was under 0.05 µM throughout.

Regarding `Nc1ncnc2ccc(-c3c(-c4cc(Cl)ccc4F)nc4n3CCC4)cc12` [Compound 346, 6-(2-(5-chloro-2-fluorophenyl)-6,7-dihydro-5H-pyrrolo[1,2-a]imidazol-3-yl)quinazolin-4-amine], the IC50 with GDF8 (setting [1]) and with TGF-β (setting [2]) was under 0.05 µM each time.

For `Fc1cc(-c2nc3n(c2-c2ccc4[nH]ncc4c2)CCC3)cc(F)c1F` [Compound 228, 5-(2-(3,4,5-trifluorophenyl)-6,7-dihydro-5H-pyrrolo[1,2-a]imidazol-3-yl)-1H-indazole], the IC50 in the experiment on GDF8 (setting [3]) and with TGF-β (setting [4]) was 0.1 to 1 µM in each case.

Regarding `Fc1cc(-c2nc3n(c2-c2ccc4ncnn4c2)CCC3)cc(F)c1F` [Compound 16, 6-(2-(3,4,5-trifluorophenyl)-6,7-dihydro-5H-pyrrolo[1,2-a]imidazol-3-yl)-[1,2,4]triazolo[1,5-a]pyridine], the IC50 with GDF8 (setting [1]) is 0.1 to 1 µM; in the experiment with TGF-β (setting [2]), over 1 µM.

For the molecule `COc1ccc(-c2nc3n(c2-c2ccc4ncnn4c2)CCC3)cc1` [Compound 95, 6-(2-(4-methoxyphenyl)-6,7-dihydro-5H-pyrrolo[1,2-a]imidazol-3-yl)-[1,2,4]triazolo[1,5-a]pyridine], the IC50 in the experiment on GDF8 (setting [3]) and with TGF-β (setting [4]) was over 1 µM each time.

For the molecule `Fc1ccc(-c2nc3occn3c2I)cc1F` [Compound 132, 6-(3,4-difluorophenyl)-5-iodoimidazo[2,1-b]oxazole], the IC50 in the experiment with GDF8 (setting [1]) and with TGF-β (setting [2]) was over 1 µM throughout.

For the molecule `Cc1cc(-c2nc3n(c2-c2ccc4nccnc4c2)CCC3)cc(C)c1F` [Compound 278, 6-(2-(4-fluoro-3,5-dimethylphenyl)-6,7-dihydro-5H-pyrrolo[1,2-a]imidazol-3-yl)quinoxaline], the IC50 in the experiment with GDF8 (setting [1]) and in the experiment on TGF-β (setting [2]) was over 1 µM in each case.

With `Fc1cc(Cl)c(-c2nc3n(c2-c2ccc4ncccc4c2)CCC3)cc1F` [Compound 290, 6-(2-(2-chloro-4,5-difluorophenyl)-6,7-dihydro-5H-pyrrolo[1,2-a]imidazol-3-yl)quinoline], the IC50 in the experiment on GDF8 (setting [1]) is 0.1 to 1 µM; in the experiment with TGF-β (setting [2]), over 1 µM.

Consider `Fc1cc(F)c(F)c(-c2nc3n(c2-c2ccc4ncccc4c2)CCN3)c1` [Compound 110, 6-(6-(2,3,5-trifluorophenyl)-2,3-dihydro-1H-imidazo[1,2-a]imidazol-5-yl)quinoline], for which the IC50 with GDF8 (setting [1]) and in the experiment with TGF-β (setting [2]) was under 0.05 µM throughout.

`Fc1ccc(Cl)cc1-c1nc2n(c1-c1ccc3ncsc3c1)CCC2` [Compound 339, 6-(2-(5-chloro-2-fluoropheny)-6,7-dihydro-5H-pyrrolo[1,2-a]imidazol-3-yl)benzo[d]thiazole]: the IC50 with GDF8 (setting [1]) and in the experiment with TGF-β (setting [2]) was under 0.05 µM each time.

As to `Fc1cc(Cl)c(-c2nc3n(c2-c2ccc4ncnn4c2)CCC3)cc1F` [Compound 49, 6-(2-(2-chloro-4,5-difluorophenyl)-6,7-dihydro-5H-pyrrolo[1,2-a]imidazol-3-yl)-[1,2,4]triazolo[1,5-a]pyridine], the IC50 in the experiment with GDF8 (setting [1]) and with TGF-β (setting [2]) was 0.1 to 1 µM each time.

For the molecule `Fc1ccc(-c2nc3occn3c2-c2ccc3cn[nH]c3c2)cc1F` [Compound 134, 6-(3,4-difluorophenyl)-5-(1H-indazol-6-yl)imidazo[2,1-b]oxazole], the IC50 lay within 0.05 to 0.1 µM in the experiment with GDF8 (setting [1]) and 0.1 to 1 µM in the experiment on TGF-β (setting [2]).

Take `Fc1cccc(-c2nc3n(c2-c2ccc4ncsc4c2)CCC3)c1` [Compound 195, 6-(2-(3-fluorophenyl)-6,7-dihydro-5H-pyrrolo[1,2-a]imidazol-3-yl)benzo[d]thiazole]: the IC50 with GDF8 (setting [3]) and with TGF-β (setting [4]) was 0.1 to 1 µM in each case.

Take `Cc1ccccc1-c1nc2n(c1-c1ccc3nccnc3c1)CCC2` [Compound 306, 6-(2-(o-tolyl)-6,7-dihydro-5H-pyrrolo[1,2-a]imidazol-3-yl)quinoxaline]: the IC50 with GDF8 (setting [1]) and in the experiment with TGF-β (setting [2]) was over 1 µM each time.

For `Fc1ccc(-c2nc3n(c2-c2ccc4nccn4c2)CCC3)c(F)c1` [Compound 9], the IC50 in the experiment on GDF8 (setting [1]) was under 0.05 µM; in the experiment with TGF-β (setting [2]), 0.1 to 1 µM.

On to `Fc1ccc(-c2nc3n(c2-c2ccc4nccn4c2)CCC3)cc1Cl` [Compound 37], for which the IC50 in the experiment on GDF8 (setting [1]) is 0.05 to 0.1 µM; with TGF-β (setting [2]), 0.1 to 1 µM.

`Cc1ccccc1-c1nc2n(c1-c1ccc3ncccc3c1)CCC2` [Compound 307, 6-(2-(o-tolyl)-6,7-dihydro-5H-pyrrolo[1,2-a]imidazol-3-yl)quinoline]: the IC50 in the experiment with GDF8 (setting [1]) and in the experiment on TGF-β (setting [2]) was over 1 µM each time.

For the molecule `Fc1ccc(-c2nc3occn3c2-c2ccc3cn[nH]c3c2)c(F)c1` [Compound 155, 6-(2,4-difluorophenyl)-5-(1H-indazol-6-yl)imidazo[2,1-b]oxazole], the IC50 was in the range of 0.05 to 0.1 µM in the experiment on GDF8 (setting [1]) and 0.1 to 1 µM in the experiment on TGF-β (setting [2]).

As for `Fc1ccc(-c2nc3n(c2-c2ccc4ncsc4c2)CCC3)c(F)c1F` [Compound 226, 6-(2-(2,3,4-trifluorophenyl)-6,7-dihydro-5H-pyrrolo[1,2-a]imidazol-3-yl)benzo[d]thiazole], the IC50 with GDF8 (setting [3]) and with TGF-β (setting [4]) was 0.1 to 1 µM throughout.

Turning to `OCC1Cn2c(nc(-c3cc(F)cc(F)c3F)c2-c2ccc3ncnn3c2)N1` (stereo not drawn) [Compound 121, (5-([1,2,4]triazolo[1,5-a]pyridin-6-yl)-6-(2,3,5-trifluorophenyl)-2,3-dihydro-1H-imidazo[1,2-a]imidazol-2-yl)methanol], the IC50 in the experiment on GDF8 (setting [1]) and with TGF-β (setting [2]) was under 0.05 µM in each case.

On to `CN1CCC2Cn3c(nc(-c4ccc(F)cc4)c3-c3ccc4ncnn4c3)C2C1` (stereo not drawn) [Compound 89, 3-([1,2,4]triazolo[1,5-a]pyridin-6-yl)-2-(4-fluorophenyl)-8-methyl-5a,6,7,8,9,9a-hexahydro-5H-imidazo[1′,2′:1,2]pyrrolo[3,4-c]pyridine], for which the IC50 in the experiment with GDF8 (setting [1]) and in the experiment with TGF-β (setting [2]) was over 1 µM each time.

As to `Cc1cc(F)c(-c2nc3n(c2-c2ccc4ncsc4c2)CCC3)cc1F` [Compound 285, 6-(2-(2,5-difluoro-4-methylphenyl)-6,7-dihydro-5H-pyrrolo[1,2-a]imidazol-3-yl)benzo[d]thiazole], the IC50 in the experiment with GDF8 (setting [1]) and in the experiment with TGF-β (setting [2]) was over 1 µM in each case.

For the molecule `Fc1ccc(-c2nc3n(c2-c2ccc4nccnc4c2)CC2(CCCC2)C3)cc1` [Compound 326, 2′-(4-fluorophenyl)-3′-(quinoxalin-6-yl)-5′H,7′H-spiro[cyclopentane-1,6′-pyrrolo[1,2-a]imidazole]], the IC50 with GDF8 (setting [3]) and with TGF-β (setting [4]) was over 1 µM throughout.

As to `FC(F)(F)c1cccc(-c2nc3n(c2-c2ccc4cn[nH]c4c2)CCC3)c1` [Compound 182, 6-(2-(3-(trifluoromethyl)phenyl)-6,7-dihydro-5H-pyrrolo[1,2-a]imidazol-3-yl)-1H-indazole], the figures for the IC50 in the experiment on GDF8 (setting [1]) and in the experiment with TGF-β (setting [2]) were 0.05 to 0.1 µM and 0.1 to 1 µM, respectively.

With `Cc1cc(F)ccc1-c1nc2n(c1-c1ccc3ncccc3c1)CCC2` [Compound 295, 6-(2-(4-fluoro-2-methylphenyl)-6,7-dihydro-5H-pyrrolo[1,2-a]imidazol-3-yl)quinoline], the IC50 in the experiment with GDF8 (setting [1]) and with TGF-β (setting [2]) was over 1 µM throughout.

As for `Fc1cc(F)c(F)c(-c2nc3n(c2-c2ccc4ncccc4c2)CCCN3)c1` [Compound 165, 6-(2-(2,3,5-trifluorophenyl)-5,6,7,8-tetrahydroimidazo[1,2-a]pyrimidin-3-yl)quinoline], the IC50 in the experiment with GDF8 (setting [1]) was over 1 µM; in the experiment with TGF-β (setting [2]), 0.1 to 1 µM.

In the case of `Cc1cc(-c2nc3n(c2-c2ccc4ncsc4c2)CCC3)c(Cl)cc1F` [Compound 323, 6-(2-(2-chloro-4-fluoro-5-methylphenyl)-6,7-dihydro-5H-pyrrolo[1,2-a]imidazol-3-yl)benzo[d]thiazole], the IC50 was over 1 µM in the experiment on GDF8 (read-out: GDF8: inhibition of GDF8 signaling, GDF pSMAD (MPC11), p-SMAD3 (Ser423/425) AlphaScreen in cell lysate, GDF8 stimulation) and over 1 µM with TGF-β (read-out: TGF-β: inhibition of TGF-β signaling, TGF-β pSMAD (MPC-11), p-SMAD3 (Ser423/425) AlphaScreen in cell lysate, TGF-β stimulation).

For `COc1c(C)cc(-c2nc3n(c2-c2ccc4ncsc4c2)CCC3)cc1C` [Compound 257, 6-(2-(4-methoxy-3,5-dimethylphenyl)-6,7-dihydro-5H-pyrrolo[1,2-a]imidazol-3-yl)benzo[d]thiazole], the IC50 in the experiment with GDF8 (setting [1]) and in the experiment with TGF-β (setting [2]) was over 1 µM each time.

Turning to `Cc1cc(-c2nc3n(c2-c2ccc4nccn4c2)CCC3)cc(Cl)c1F` [Compound 41, 6-(2-(3-chloro-4-fluoro-5-methylphenyl)-6,7-dihydro-5H-pyrrolo[1,2-c]imidazol-3-yl)imidazo[1,2-c]pyridine], the IC50 in the experiment on GDF8 (setting [1]) and with TGF-β (setting [2]) was over 1 µM throughout.

`Cc1c(F)ccc(-c2nc3n(c2-c2ccc4ncsc4c2)CCC3)c1F` [Compound 281, 6-(2-(2,4-difluoro-3-methylphenyl)-6,7-dihydro-5H-pyrrolo[1,2-a]imidazol-3-yl)benzo[d]thiazol]: the IC50 was in the range of 0.05 to 0.1 µM in the experiment on GDF8 (setting [1]) and 0.1 to 1 µM in the experiment on TGF-β (setting [2]).
